Data set [1] deals with DPPIV-deficient male Fisher rats.
Procedure: Animals: DPPIV-deficient male Fisher rats (purchased from Charles River Japan, Inc.)
Each test compound was suspended in a solution of 0.5% methyl cellulose at the doses indicated in Table 2, and then administered orally at a volume of 5 mL/kg. The vehicle control group was orally administered a solution of 0.5% methyl cellulose at a volume of 5 mL/kg.
An unanesthetized rat was lightly cut at the caudal vein with a razor blade and bled immediately before, and at 1, 3, and 5 hours after the administration of a test compound or a solution of 0.5% methyl cellulose. 250 μL of blood was collected from the rat using a heparinized capillary and transferred into a centrifugation tube. The supernatant obtained by centrifugation (at 10000 g at 4° C. for 2 minutes) was assayed for GLP-1 level using Active GLP-1 ELISA kit (Linco).
Data set [2] deals with BALB/c AnCrj mice. The following applies: 5-FU 60 mg/kg p.o. for 3 days.
Procedure: Animals: BALB/c AnCrj Mice (Purchased from Charles River Japan, Inc.)
5-FU (purchased from Sigma) was suspended in a solution of 0.5% methyl cellulose, and then administered orally at a volume of 10 mL/kg/day (8 a.m. to 9 a.m.) for 3 days (60 mg/kg). […] The vehicle control group was orally administered a solution of 0.5% methyl cellulose at a volume of 10 mL/kg.
Mice were fasted for 18 hours following the afternoon administration on the third day of the administration series. On the following day, the mice were killed by cervical dislocation, and then the whole small intestine was excised and the wet weight was measured.
Data set [3] relates to DPPIV-intact normal male Fisher rats. The data set can be described thus: Influences of metformin and DPPIV inhibitors (Examples 82, 119, 120, 122, 229, 267), singly or in combination, on GLP-1 level in normal rats. It counts as in vivo, rat. As to conditions: 3 hours. How it is done:
Animals: DPPIV-Intact Normal Male Fisher Rats (Purchased from CLEA Japan, Inc.)
250 μL of blood was collected from the rat using a heparinized capillary and transferred into a centrifugation tube.

For data set [4], the target named is T1, DPPIV obtained from swine kidney (Sus scrofa, UniProt P22411).
T1 construct: DPPIV obtained from swine kidney; from tissue; host or cells: swine kidney
T1 sequence (P22411 whole entry): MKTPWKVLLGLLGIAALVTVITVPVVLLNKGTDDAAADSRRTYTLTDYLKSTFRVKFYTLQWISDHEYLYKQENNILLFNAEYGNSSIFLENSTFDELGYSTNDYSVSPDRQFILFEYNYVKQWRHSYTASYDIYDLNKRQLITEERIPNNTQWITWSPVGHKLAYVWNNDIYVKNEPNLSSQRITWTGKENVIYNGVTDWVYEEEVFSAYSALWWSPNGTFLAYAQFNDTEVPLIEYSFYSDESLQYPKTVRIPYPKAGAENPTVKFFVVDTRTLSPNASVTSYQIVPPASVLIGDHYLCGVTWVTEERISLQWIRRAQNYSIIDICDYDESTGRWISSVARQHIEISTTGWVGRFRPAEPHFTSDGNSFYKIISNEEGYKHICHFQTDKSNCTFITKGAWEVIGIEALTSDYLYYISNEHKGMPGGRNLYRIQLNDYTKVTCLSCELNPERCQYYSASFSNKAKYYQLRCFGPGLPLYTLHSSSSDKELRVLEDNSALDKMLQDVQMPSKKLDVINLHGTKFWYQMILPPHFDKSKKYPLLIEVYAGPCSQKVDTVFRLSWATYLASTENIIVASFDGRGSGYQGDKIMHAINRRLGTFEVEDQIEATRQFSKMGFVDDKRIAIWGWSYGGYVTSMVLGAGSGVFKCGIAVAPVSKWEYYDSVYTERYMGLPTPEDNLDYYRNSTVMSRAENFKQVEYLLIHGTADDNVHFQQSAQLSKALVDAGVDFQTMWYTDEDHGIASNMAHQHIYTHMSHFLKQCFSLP
In words: Assay for the DPPIV-inhibiting activity. Format: biochemical. As to conditions: DPPIV 10 mU/mL, Gly-Pro-p-nitroanilide 0.33 mM, absorbance 405 nm. How it is done: DPPIV obtained from swine kidney was dissolved in a reaction buffer (50 mM Tris-HCl (pH 7.4)/0.1% BSA) at a fmal concentration of 10 mU/mL. A 110 μL aliquot of this enzyme solution was added to the reaction system, and then 15 μL of an agent was added. The reaction solution was incubated at room temperature for 20 minutes. 25 μL of a solution containing 2 mM Gly-Pro-p-nitroanilide was added to the reaction solution (at the final concentration of 0.33 mM) to start the enzyme reaction. The reaction time was 20 minutes. 25 μL of 1N phosphate solution was added to stop the reaction. […] The degree of inhibition to the enzyme reaction was determined, and IC50 was computed based on the absorbance.

Molecules are shown by their SMILES. Where a name gives a salt, the structure may show the parent alone. Read-outs that look alike come from different tables or passages of the source.

By IC50 is commonly meant the concentration that gives 50% inhibition.

Turning to `CCCCNC(=N)NC(=N)N` [Buformin, buformin], the “GLP-1 concentration at each time point (hr) after oral administration (% of Pre)” value in data set [1] (30 mg/kg p.o., 0 hr) is 100 ± 0.0 % of Pre; in data set [1] (30 mg/kg p.o., 1 hr) it was 118.7 ± 9.3 % of Pre; in data set [1] (30 mg/kg p.o., 3 hr), 122.7 ± 7.1 % of Pre; in data set [1] (30 mg/kg p.o., 5 hr), 114.6 ± 4.4 % of Pre; in data set [1] (100 mg/kg p.o., 0 hr), 100 ± 0.0 % of Pre; in data set [1] (100 mg/kg p.o., 1 hr), 163.6 ± 19.6 % of Pre. Also, the “GLP-1 concentration at each time point (hr) after oral administration (% of Pre)” value in data set [1] (100 mg/kg p.o., 1 hr, listed as buformin) was “significantly elevated”; in data set [1] (100 mg/kg p.o., 3 hr), 171.2 ± 9.1 % of Pre; in data set [1] (100 mg/kg p.o., 5 hr) it was 195.8 ± 36.6 % of Pre; in data set [1] (100 mg/kg p.o., 5 hr, listed as buformin) it was “significantly elevated”.
Consider `O=c1[nH]cc(F)c(=O)[nH]1` [Example 5-FU, 5-Fluorouracil], for which the “wet weight of mouse small intestine” value in data set [2] was “significantly decreased”.
With `CC#CCn1c(N2CCNCC2)nc2nc(C#N)n(C)c(=O)c21.O=C(O)C(F)(F)F` [Example 82, 7-(2-Butynyl)-2-cyano-1-methyl-8-(piperazin-1-yl)-1,7-dihydropurin-6-one trifluoroacetate], the “GLP-1 concentration 3 hours after oral administration (% of Pre)” value (“GLP-1 concentration 3 hours … (% of Pre)” for short) in data set [3] (20 mg/kg p.o.) is listed as 97.3 ± 2.1 % of Pre.
Turning to `CC#CCn1c(N2CCNCC2)nc2cnn(C)c(=O)c21` [Example 119, 3-(2-Butynyl)-5-methyl-2-(piperazin-1-yl)-3,5-dihydroimidazo[4,5-d]pyridazin-4-one], the 50% inhibitory concentration (IC50) in data set [4] (read-out: IC50) worked out at 154 nM. Besides, in data set [3] (10 mg/kg p.o.), the “GLP-1 concentration 3 hours … (% of Pre)” value is 98.9 ± 2.2 % of Pre.
For the compound `CC#CCn1c(N2CCCC(N)C2)nc2cnn(C)c(=O)c21.O=C(O)C(F)(F)F` (centres unmarked) [Example 120, 2-(3-Aminopiperidin-1-yl)-3-(2-butynyl)-5-methyl-3,5-dihydroimidazo[4,5-d]pyridazin-4-one trifluoroacetate], the “GLP-1 concentration 3 hours … (% of Pre)” value in data set [3] (10 mg/kg p.o.) is 104.8 ± 2.9 % of Pre.
On to `CC#CCn1c(N2CCNCC2)nc2nc(Oc3ccccc3C(N)=O)n(C)c(=O)c21` [Example 122, 2-[7-(2-Butynyl)-1-methyl-6-oxo-8-(piperazin-1-yl)-6,7-dihydro-1H-purin-2-yloxy]benzamide], for which, in data set [4] (read-out: IC50), the concentration for half-maximal inhibition (IC50) is 15.3 nM. For the same compound, the “GLP-1 concentration 3 hours … (% of Pre)” value in data set [3] (10 mg/kg p.o.) is on record as 108.2 ± 6.6 % of Pre.
As for `CC#CCn1c(N2CCNCC2)nc2nc(C#N)n(Cc3ccccc3C#N)c(=O)c21.Cl` [Example 229, 7-(2-Butynyl)-1-(2-cyanobenzyl)-6-oxo-8-(piperazin-1-yl)-6,7-dihydro-1H-purine-2-carbonitrile hydrochloride], the “GLP-1 concentration 3 hours … (% of Pre)” value in data set [3] (10 mg/kg p.o.) is on record as 102.5 ± 1.7 % of Pre.
On to `CC#CCn1c(N2CCNCC2)nc2cnn(Cc3ccccc3C#N)c(=O)c21.O=C(O)C(F)(F)F` [Example 267, 2-[3-(2-Butynyl)-4-oxo-2-(piperazin-1-yl)-3,4-dihydroimidazo[4,5-d]pyridazin-5-ylmethyl]benzonitrile trifluoroacetate], for which the “GLP-1 concentration 3 hours … (% of Pre)” value in data set [3] (10 mg/kg p.o.) is recorded as 110.0 ± 9.0 % of Pre.
Regarding `CC#CCn1c(N2CCNCC2)nc2c1c(=O)n(CCc1ccccc1)c(=O)n2CC(=O)N1CCCC1` [Example 418, 7-(2-Butynyl)-3-[2-oxo-2-(pyrrolidin-1-yl)ethyl]-1-(2-phenethyl)-8-(piperazin-1-yl)-3,7-dihydro purine-2,6-dione hydrochloride], in data set [4] (IC50 (nM)), it took 1.14 nM to reach half-maximal inhibition (IC50).
The compound `CC#CCn1c(N2CCNCC2)nc2c1c(=O)n(CCc1ccccc1)c(=O)n2CC(=O)NC` [Example 419, 2-[7-(2-Butynyl)-2,6-dioxo-1-(2-phenethyl)-8-(piperazin-1-yl)-1,2,6,7-tetrahydropurin-3-yl]-N-methylacetamide hydrochloride] came in with an IC50 in data set [4] (IC50 (nM)) of 1.55 nM.
Consider `CC#CCn1c(N2CCNCC2)nc2c1c(=O)n(CCc1ccccc1)c(=O)n2CC(=O)NC1CC1` [Example 420, 2-[7-(2-Butynyl)-2,6-dioxo-1-(2-phenethyl)-8-(piperazin-1-yl)-1,2,6,7-tetrahydropurin-3-yl]-N-cyclopropyl acetamide hydrochloride], for which the IC50 in data set [4] (IC50 (nM)) stood at 1.7 nM.
Same read-out and setting: with `CC#CCn1c(N2CCNCC2)nc2c1c(=O)n(CCc1ccccc1)c(=O)n2CC(=O)Nc1ccccc1` [Example 421, 2-[7-(2-Butynyl)-2,6-dioxo-1-(2-phenethyl)-8-(piperazin-1-yl)-1,2,6,7-tetrahydropurin-3-yl]-N-phenylacetamide hydrochloride] the figure was 3.37 nM; with `C#CCNC(=O)Cn1c(=O)n(CCc2ccccc2)c(=O)c2c1nc(N1CCNCC1)n2CC#CC` [Example 422, 2-[7-(2-Butynyl)-2,6-dioxo-1-(2-phenethyl)-8-(piperazin-1-yl)-1,2,6,7-tetrahydropurin-3-yl]-N-(2-propynyl) acetamide hydrochloride], 0.472 nM.
For `[H]/N=C(/N)N/C(=N/[H])NCCc1ccccc1` [Phenformin, phenformin], the “GLP-1 concentration at each time point (hr) after oral administration (% of Pre)” value in data set [1] (30 mg/kg p.o., 0 hr) was 100 ± 0.0 % of Pre; in data set [1] (30 mg/kg p.o., 1 hr), 125.3 ± 10.7 % of Pre; in data set [1] (30 mg/kg p.o., 3 hr) it was 120.0 ± 7.2 % of Pre; in data set [1] (30 mg/kg p.o., 5 hr), 126.7 ± 10.7 % of Pre; in data set [1] (100 mg/kg p.o., 0 hr), 100 ± 0.0 % of Pre; in data set [1] (100 mg/kg p.o., 1 hr), 316.9 ± 26.4 % of Pre. Moreover, the “GLP-1 concentration at each time point (hr) after oral administration (% of Pre)” value in data set [1] (100 mg/kg p.o., 1 hr, listed as phenformin) is “significantly elevated”; in data set [1] (100 mg/kg p.o., 3 hr), 330.7 ± 112.4 % of Pre; in data set [1] (100 mg/kg p.o., 3 hr, listed as phenformin), “significantly elevated”; in data set [1] (100 mg/kg p.o., 5 hr), 236.5 ± 20.5 % of Pre; in data set [1] (100 mg/kg p.o., 5 hr, listed as phenformin) it was “significantly elevated”.

The values above are taken from US20060094722A1 (Eisai Co., Ltd., priority 2002, published 2006).
